Assay results as given in patent US9433593B1, “Composition for anti-inflammation containing 5-adamantan-1-yl-N-(2,4-dihydroxy-benzyl)-2,4-dimethoxy-benzamide” (Amorepacific Corporation, priority 2015, dated 2016).

Columns and labels:
[1] = test system: NO production in RAW 264.7 cells; assay: NO production in LPS-treated cells (Griess test); format: cell-based, murine; conditions: 0-30 μM for 30 minutes, then LPS (1 μg/mL) 24 hours, vs group treated only with LPS
Protocol: (§1) RAW 264.7 cells (murine macrophage cell line) (ATCC, Rockville, Md., USA) and HEK 293 cells were cultured in RPMI 1640 medium supplemented with FBS (10% heat-inactivated fetal bovine serum; Gibco, Grand Island, N.Y., USA), glutamine and antibiotics (penicillin and streptomycin) at 37° C. under 5% CO2.
(§2) RAW 264.7 cells (1×10^6 cells/well) that had been preincubated for 18 hours were treated with 5-adamantan-1-yl-N-(2,4-dihydroxybenzyl)-2,4-dimethoxybenzamide (hereinafter, ‘AP736’) at concentrations of 0-30 μM for 30 minutes and then incubated for 6 hours or 24 hours with LPS (1 μg/mL). The supernatant was recovered after the incubation. The cells incubated for 6 hours were subjected to PGE2 analysis and those incubated for 24 hours were subjected to NO analysis. The NO concentration in the culture medium was measured by the Griess test (Promega, Madison, Wis., USA). And, the concentration of PGE2 released to the culture medium was measured using an EIA kit (Amersham, Little Chalfont, Buckinghamshire, UK).

COX-2 = assay: LPS-induced COX-2 expression (RT-PCR); format: cell-based, murine; conditions: RAW 264.7 cells, pretreated at different concentrations, LPS 4 hours
Protocol: (§3) The expression level of iNOS, COX-2 and IL-1β which are known as inflammation-inducing factors was measured.
(§4) In order to investigate the effect of 5-adamantan-1-yl-N-(2,4-dihydroxybenzyl)-2,4-dimethoxybenzamide on inhibition of iNOS, COX-2 and IL-1β expression in RAW 264.7 cells, the cells were pretreated with 5-adamantan-1-yl-N-(2,4-dihydroxybenzyl)-2,4-dimethoxybenzamide at different concentrations and then RT-PCR was conducted after treating with LPS for 4 hours.

IL-1β = assay: LPS-induced IL-1β expression (RT-PCR); format: cell-based, murine; conditions: RAW 264.7 cells, pretreated at different concentrations, LPS 4 hours
Protocol: as §3, §4

iNOS = assay: LPS-induced iNOS expression (RT-PCR); format: cell-based, murine; conditions: RAW 264.7 cells, pretreated at different concentrations, LPS 4 hours
Protocol: as §3, §4

NF-κB = NF-κB luciferase reporter gene assay; format: cell-based; conditions: HEK 293 cells, NF-κB-Luc, MyD88 or TRIF cotransfected, 8 hours
Protocol: as §1
(§5) The activity of transcription factors can be tested by the luciferase reporter gene assay. It is known that the activity of NF-κB and AP-1 is induced by the TLR adapter protein. NF-κB and AP-1 are known to produce the inflammatory factors NO and PGE2.
(§6) HEK 293 cells (1×10^6 cells/well) were cotransfected with 1 μg of a plasmid containing NF-κB-Luc (luciferase) and AP-1-Luc constructs. The transfection was conducted on a 12-well plate by the PEI method. After 48 hours, the transformed cells were used for experiment. MyD88 or TRIF (1 μg/mL each), which are known as TLR adapter proteins, were cotransfected for 8 hours together with 5-adamantan-1-yl-N-(2,4-dihydroxybenzyl)-2,4-dimethoxybenzamide (5-adamantan-1-yl-N-(2,4-dihydroxybenzyl)-2,4-dimethoxybenzamide is denoted as ‘AP736’ in FIG. 5). The luciferase reporter gene assay was performed using the luciferase assay system (Promega, Madison, Wis.).

AP-1 = AP-1 luciferase reporter gene assay; format: cell-based; conditions: HEK 293 cells, AP-1-Luc, MyD88 or TRIF cotransfected, 8 hours
Protocol: as §1, §5, §6

[2] = test system: PGE2 production in RAW 264.7 cells; assay: PGE2 production in LPS-treated cells (EIA kit); format: cell-based, murine; conditions: 0-30 μM for 30 minutes, then LPS (1 μg/mL) 6 hours, vs group treated only with LPS
Protocol: as §1, §2

RAW 264.7 cells = assay: Cytotoxicity by MTT method; format: cell-based
Protocol: as §1
In all experiments, the cells were detached with a cell scraper. When the cells were cultured to a density of 2×10^6 cells/mL, the ratio of dead cells was 1% or lower (determined by the trypan blue dye exclusion method)
During subculturing, RAW 264.7 cells were plated on a well plate to a concentration of 1×10^6 cells/well. After culturing for 18 hours, the cells were treated with 5-adamantan-1-yl-N-(2,4-dihydroxybenzyl)-2,4-dimethoxybenzamide (denoted as ‘AP736’ in FIG. 1) at concentrations of 0-30 μM. Then, the cells were cultured in an incubator for 8 hours or 24 hours. Cytotoxicity was evaluated by the commonly used MTT method. 3 hours before the last culturing, 10 μL of an MTT (3-[4,5-dimethylthiazol-2-yl]-2,5-diphenyltetrazolium bromide) solution (10 mg/mL in phosphate-buffered saline, pH 7.4) was added to each well. After terminating reaction by adding 15% SDS (sodium dodecyl sulfate) to each well, the formed formazan crystals were dissolved. Then, absorbance was measured at 570 nm on a microplate reader.

## COc1cc(OC)c(C23CC4CC(CC(C4)C2)C3)cc1C(=O)NCc1ccc(O)cc1O [5-adamantan-1-yl-N-(2,4-dihydroxybenzyl)-2,4-dimethoxybenzamide]
[1]
  NO production: statistically significant decrease in NO production with increasing concentration
COX-2
  expression of the mRNAs and proteins of COX-2 induced by LPS: distinctly inhibited
IL-1β
  expression of the mRNAs and proteins of IL-1β induced by LPS: distinctly inhibited
iNOS
  expression of the mRNAs and proteins of iNOS induced by LPS: distinctly inhibited
NF-κB
  activity of NF-κB: decreased activity
AP-1
  activity of AP-1: decreased activity
[2]
  concentration of PGE2: decreased as compared to the group treated only with LPS with increasing concentration
RAW 264.7 cells; 10 μM, treated for 8 hours
  cell viability: 100%
RAW 264.7 cells; 10 μM, treated for 24 hours
  cell viability: 100%
RAW 264.7 cells; 20 μM, treated for 8 hours
  cell viability: 100%
RAW 264.7 cells; 20 μM, treated for 24 hours
  cell viability: 100%
RAW 264.7 cells; 30 μM, cultured for 24 hours
  cell viability: ~80%
